Laboratory results as given in ChEMBL document CHEMBL1125556, “Fluoroquinolones: relationships between structural variations, mammalian cell cytotoxicity, and antimicrobial activity” (J Med Chem, 1992).
Converted amounts (≈) assume the structure as drawn.

How the values were obtained:
V79 = experiment: Mammalian cell cytotoxicity test in chinese hamster V79 cells (clonogenic cytotoxicity); assay type: functional, cell-based; settings: Cricetulus griseus, V79; read-out: IC50
[1] = Antibacterial activity against five Gram-negative bacteria; assay type: functional; settings: read-out: MIC

MIC [1]: 0.05 µg/mL (≈ 0.132 µM)
Structure (SMILES): CC1CN(c2c(F)cc3c(=O)c(C(=O)O)cn(C4CC4)c3c2F)CC(C)N1 (configuration not stated)
IC50 (V79): 150 µg/mL (≈ 397 µM)
